In ChEMBL document CHEMBL4130623, “Discovery of Highly Potent Pinanamine-Based Inhibitors against Amantadine- and Oseltamivir-Resistant Influenza A Viruses” (J Med Chem, 2018):
pEC50: −log10 of the molar value.

Experiments:
Assay in all cases: microbe, parasite or virus in culture
Type in all cases: functional, organism-based
Settings in all cases: A/Guangzhou/GIRD/07/2009 (H1N1), MDCK
Influenza A virus [1] = system: Influenza A virus
Influenza A virus [2] = system: Influenza A virus; remark: listed apart in the source
Influenza A virus [3] = system: Influenza A virus; remark: listed apart in the source
Influenza A virus [4] = system: Influenza A virus; remark: listed apart in the source
Influenza A virus [5] = system: Influenza A virus; remark: listed apart in the source
Influenza A virus [6] = system: Influenza A virus; remark: listed apart in the source
Influenza A virus [7] = system: Influenza A virus; remark: listed apart in the source
Influenza A virus [8] = system: Influenza A virus; remark: listed apart in the source
Influenza A virus [9] = system: Influenza A virus; remark: listed apart in the source

**Q.** How did the pEC50 (Influenza A virus [1]) turn out when `C[C@@H]1C2CC(C[C@H]1NCc1sccc1C1CC1)C2(C)C` (single isomer, unassigned) was run?
**A.** < 4.37

**Q.** What about the pEC50 (Influenza A virus [2]) of the same compound?
**A.** 4.86

**Q.** What about the pEC50 (Influenza A virus [3]) of the same compound?
**A.** 5.77

**Q.** What about the pEC50 (Influenza A virus [4]) of the same compound?
**A.** 4.59

**Q.** And the pEC50 (Influenza A virus [5])?
**A.** < 4.37

**Q.** What about the pEC50 (Influenza A virus [6]) of the same compound?
**A.** < 4.37

**Q.** And the pEC50 (Influenza A virus [7])?
**A.** 6.49

**Q.** And the pEC50 (Influenza A virus [8])?
**A.** 6.47

**Q.** And the pEC50 (Influenza A virus [9])?
**A.** 5.06
